From ChEMBL document CHEMBL5537113, “Discovery of 1,2-diaryl-3-oxopyrazolidin-4-carboxamides as a new class of MurA enzyme inhibitors and characterization of their antibacterial activity” (Eur J Med Chem, 2023)

Assays:
Escherichia coli = test: Antibacterial activity against Escherichia coli harboring tolC deletion mutant assessed as reduction in microbial growth incubated for 16 hrs by serial dilution method; format: functional
[1] = target: UDP-N-acetylglucosamine 1-carboxyvinyltransferase (Escherichia coli K-12) (UniProt P0A749); test: Inhibition of Escherichia coli K12 His-tagged MurA expressed in Escherichia coli BL21 cells at 50 uM using UNAG as substrate pre incubated for 15 mins followed by substrate addition and measured after 15 mins by microplate reader analysis relative to control; conditions: time 30.0 min
Sequence of UDP-N-acetylglucosamine 1-carboxyvinyltransferase (Escherichia coli K-12) (P0A749 whole entry): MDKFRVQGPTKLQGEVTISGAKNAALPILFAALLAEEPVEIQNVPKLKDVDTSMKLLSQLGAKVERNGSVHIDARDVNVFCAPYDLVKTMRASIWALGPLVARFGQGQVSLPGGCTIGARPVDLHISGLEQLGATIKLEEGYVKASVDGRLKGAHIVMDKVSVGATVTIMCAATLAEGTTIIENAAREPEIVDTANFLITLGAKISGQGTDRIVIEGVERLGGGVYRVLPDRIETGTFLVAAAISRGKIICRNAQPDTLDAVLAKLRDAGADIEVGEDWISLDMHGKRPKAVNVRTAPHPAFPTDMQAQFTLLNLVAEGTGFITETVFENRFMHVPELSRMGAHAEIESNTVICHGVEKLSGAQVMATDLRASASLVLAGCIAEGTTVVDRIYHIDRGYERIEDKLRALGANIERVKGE

[2] = target: UDP-N-acetylglucosamine 1-carboxyvinyltransferase (Escherichia coli K-12, UniProt P0A749); test: Inhibition of Escherichia coli K12 His-tagged MurA expressed in Escherichia coli BL21 cells using UNAG as substrate pre incubated for 15 mins followed by substrate addition and measured after 15 mins by microplate reader analysis
Sequence of UDP-N-acetylglucosamine 1-carboxyvinyltransferase (Escherichia coli K-12, UniProt P0A749) (P0A749 whole entry): as above

[3] = test system: UDP-N-acetylglucosamine 1-carboxyvinyltransferase (Escherichia coli K-12), P0A749 [C115D]; test: Inhibition of Escherichia coli MurA C115D mutant using UNAG as substrate pre incubated for 15 mins followed by substrate addition and measured after 15 mins by microplate reader analysis; conditions: time 30.0 min
Sequence of UDP-N-acetylglucosamine 1-carboxyvinyltransferase (Escherichia coli K-12), P0A749 [C115D] (P0A749 whole entry C115D): as the sequence (P0A749 whole entry) above, with C115D counted along it

[4] = target: UDP-N-acetylglucosamine 1-carboxyvinyltransferase (Escherichia coli K-12, UniProt P0A749, C115D); test: Inhibition of Escherichia coli MurA C115D mutant at 50 uM using UNAG as substrate pre incubated for 15 mins followed by substrate addition and measured after 15 mins by microplate reader analysis relative to control
Sequence of UDP-N-acetylglucosamine 1-carboxyvinyltransferase (Escherichia coli K-12, UniProt P0A749, C115D) (P0A749 whole entry C115D): as the sequence (P0A749 whole entry) above, with C115D counted along it

[5] = Drug uptake in Escherichia coli harboring tolC deletion mutant at 10 uM incubated for 30 mins by LC analysis; format: ADME; conditions: 0.5 h
[6] = Drug uptake in Escherichia coli harboring tolC deletion mutant assessed per 1.6x10^9 cells at 10 uM incubated for 30 mins by LC analysis; format: ADME; conditions: 0.5 h
Staphylococcus aureus [7] = test: Antibacterial activity against Staphylococcus aureus Newman D2C NCTC 10833 assessed as reduction in microbial growth incubated for 16 hrs by serial dilution method; format: functional
Staphylococcus aureus [8] = test: Antibacterial activity against vancomycin resistant Staphylococcus aureus 10 assessed as reduction in microbial growth by CLSI based broth microdilution method; format: functional
Streptococcus pneumoniae = test: Antibacterial activity against Streptococcus pneumoniae ATCC 700677 assessed as reduction in microbial growth by CLSI based broth microdilution method; format: functional
Clostridioides difficile [9] = test: Antibacterial activity against Clostridioides difficile ATCC BAA1870 assessed as reduction in microbial growth incubated for 48 hrs by broth microdilution method; format: functional
Clostridioides difficile [10] = test: Antibacterial activity against Clostridioides difficile NR-32895 assessed as reduction in microbial growth incubated for 48 hrs by broth microdilution method; format: functional
Clostridioides difficile [11] = test: Antibacterial activity against Clostridioides difficile NR-32889 assessed as reduction in microbial growth incubated for 48 hrs by broth microdilution method; format: functional
Clostridioides difficile [12] = test: Antibacterial activity against Clostridioides difficile NR-32903 assessed as reduction in microbial growth incubated for 48 hrs by broth microdilution method; format: functional
Clostridioides difficile [13] = test: Antibacterial activity against Clostridioides difficile NR-32904 assessed as reduction in microbial growth incubated for 48 hrs by broth microdilution method; format: functional
Clostridioides difficile [14] = test: Antibacterial activity against Clostridioides difficile NR-13427 assessed as reduction in microbial growth incubated for 48 hrs by broth microdilution method; format: functional
Clostridioides difficile [15] = test: Antibacterial activity against Clostridioides difficile NR-13436 assessed as reduction in microbial growth incubated for 48 hrs by broth microdilution method; format: functional
Clostridioides difficile [16] = test: Antibacterial activity against Clostridioides difficile NR-49277 assessed as reduction in microbial growth incubated for 48 hrs by broth microdilution method; format: functional
Clostridioides difficile [17] = test: Antibacterial activity against Clostridioides difficile NR-49278 assessed as reduction in microbial growth incubated for 48 hrs by broth microdilution method; format: functional
Clostridioides difficile [18] = test: Antibacterial activity against Clostridioides difficile NR-49279 assessed as reduction in microbial growth incubated for 48 hrs by broth microdilution method; format: functional
Clostridioides difficile [19] = test: Antibacterial activity against Clostridioides difficile NR-49282 assessed as reduction in microbial growth incubated for 48 hrs by broth microdilution method; format: functional
Clostridioides difficile [20] = test: Antibacterial activity against Clostridioides difficile NR-49283 assessed as reduction in microbial growth incubated for 48 hrs by broth microdilution method; format: functional
Clostridioides difficile [21] = test: Antibacterial activity against Clostridioides difficile NR-49284 assessed as reduction in microbial growth incubated for 48 hrs by broth microdilution method; format: functional
Clostridioides difficile [22] = test: Antibacterial activity against Clostridioides difficile NR-49285 assessed as reduction in microbial growth incubated for 48 hrs by broth microdilution method; format: functional
Clostridioides difficile [23] = test: Antibacterial activity against Clostridioides difficile NR-49286 assessed as reduction in microbial growth incubated for 48 hrs by broth microdilution method; format: functional
Clostridioides difficile [24] = test: Antibacterial activity against Clostridioides difficile NR-49287 assessed as reduction in microbial growth incubated for 48 hrs by broth microdilution method; format: functional
Clostridioides difficile [25] = test: Antibacterial activity against Clostridioides difficile NR-49288 assessed as reduction in microbial growth incubated for 48 hrs by broth microdilution method; format: functional
Clostridioides difficile [26] = test: Antibacterial activity against Clostridioides difficile NR-49291 assessed as reduction in microbial growth incubated for 48 hrs by broth microdilution method; format: functional
Clostridioides difficile [27] = test: Antibacterial activity against Clostridioides difficile NR-49294 assessed as reduction in microbial growth incubated for 48 hrs by broth microdilution method; format: functional
Clostridioides difficile [28] = test: Antibacterial activity against Clostridioides difficile ATCC 43255 assessed as reduction in microbial growth incubated for 48 hrs by broth microdilution method; format: functional
Clostridioides difficile [29] = test: Antibacterial activity against Clostridioides difficile HM-88 assessed as reduction in microbial growth incubated for 48 hrs by broth microdilution method; format: functional
Clostridioides difficile [30] = test: Bactericidal activity against Clostridioides difficile NR-32895 assessed as reduction in microbial growth by broth microdilution method; format: functional
Clostridioides difficile [31] = test: Bactericidal activity against Clostridioides difficile NR-32904 assessed as reduction in microbial growth by broth microdilution method; format: functional
Clostridioides difficile [32] = test: Bactericidal activity against Clostridioides difficile NR-49278 assessed as reduction in microbial growth by broth microdilution method; format: functional
Clostridioides difficile [33] = test: Bactericidal activity against Clostridioides difficile NR-49284 assessed as reduction in microbial growth by broth microdilution method; format: functional
Clostridioides difficile [34] = test: Bactericidal activity against Clostridioides difficile ATCC BAA1870 assessed as reduction in microbial growth by broth microdilution method; format: functional
Clostridioides difficile [35] = test: Bactericidal activity against Clostridioides difficile ATCC 43255 assessed as reduction in microbial growth by broth microdilution method; format: functional
Bacteroides fragilis [36] = test: Antibacterial activity against Bacteroides fragilis HM 20 assessed as reduction in microbial growth incubated for 48 hrs by broth microdilution method; format: functional
Bacteroides fragilis [37] = test: Antibacterial activity against Bacteroides fragilis HM 709 assessed as reduction in microbial growth incubated for 48 hrs by broth microdilution method; format: functional
Bacteroides fragilis [38] = test: Antibacterial activity against Bacteroides fragilis HM 718 assessed as reduction in microbial growth incubated for 48 hrs by broth microdilution method; format: functional
Bacteroides fragilis [39] = test: Antibacterial activity against Bacteroides fragilis HM 719 assessed as reduction in microbial growth incubated for 48 hrs by broth microdilution method; format: functional
Bifidobacterium breve [40] = test: Antibacterial activity against Bifidobacterium breve HM 412 assessed as reduction in microbial growth incubated for 48 hrs by broth microdilution method; format: functional
Bifidobacterium longum = test: Antibacterial activity against Bifidobacterium longum HM 846 assessed as reduction in microbial growth incubated for 48 hrs by broth microdilution method; format: functional
[41] = test system: Bifidobacterium angulatum; test: Antibacterial activity against Bifidobacterium angulatum HM 1189 assessed as reduction in microbial growth incubated for 48 hrs by broth microdilution method; format: functional
Bifidobacterium breve [42] = test: Antibacterial activity against Bifidobacterium breve HM1120 assessed as reduction in microbial growth incubated for 48 hrs by broth microdilution method; format: functional
Lactobacillus gasseri [43] = test: Antibacterial activity against Lactobacillus gasseri HM 403 assessed as reduction in microbial growth incubated for 48 hrs by broth microdilution method; format: functional
Lactobacillus gasseri [44] = test: Antibacterial activity against Lactobacillus gasseri HM 407 assessed as reduction in microbial growth incubated for 48 hrs by broth microdilution method; format: functional
Lactobacillus crispatus [45] = test: Antibacterial activity against Lactobacillus crispatus HM 103 assessed as reduction in microbial growth incubated for 48 hrs by broth microdilution method; format: functional
Lactobacillus crispatus [46] = test: Antibacterial activity against Lactobacillus crispatus HM 420 assessed as reduction in microbial growth incubated for 48 hrs by broth microdilution method; format: functional

SMILES: O=C(Nc1ccc(-c2cn[nH]c2)cc1)C1CN(c2cccc(Cl)c2)N(c2cccc(Cl)c2)C1=O (centres undefined)
- MIC (Escherichia coli): > 40 µM
- inhibition [1]: 76.5%
- IC50 [2]: 12.2 µM
- inhibition [3]: 77.2%
- IC50 [4]: 12.4 µM
- Drug uptake [5]: 348 nM
- Drug uptake [6]: 11 µM
- MIC (Staphylococcus aureus [7]): > 40 µM

SMILES: CN[C@H](CC(C)C)C(=O)N[C@H]1C(=O)N[C@@H](CC(N)=O)C(=O)N[C@H]2C(=O)N[C@H]3C(=O)N[C@H](C(=O)N[C@H](C(=O)O)c4cc(O)cc(O)c4-c4cc3ccc4O)[C@H](O)c3ccc(c(Cl)c3)Oc3cc2cc(c3O[C@@H]2O[C@H](CO)[C@@H](O)[C@H](O)[C@H]2O[C@H]2C[C@](C)(N)[C@H](O)[C@H](C)O2)Oc2ccc(cc2Cl)[C@H]1O [VANCOMYCIN]
- MIC (Staphylococcus aureus [8]): 32 mg/L
- MIC (Streptococcus pneumoniae): 2 mg/L
- MIC (Clostridioides difficile [9]): 1 mg/L
- MIC (Clostridioides difficile [10]): 2 mg/L
- MIC (Clostridioides difficile [11]): 2 mg/L
- MIC (Clostridioides difficile [12]): 0.5 mg/L
- MIC (Clostridioides difficile [13]): 0.5 mg/L
- MIC (Clostridioides difficile [14]): 2 mg/L
- MIC (Clostridioides difficile [15]): 0.5 mg/L
- MIC (Clostridioides difficile [16]): 0.5 mg/L
- MIC (Clostridioides difficile [17]): 0.5 mg/L
- MIC (Clostridioides difficile [18]): 0.25 mg/L
- MIC (Clostridioides difficile [19]): 0.25 mg/L
- MIC (Clostridioides difficile [20]): 0.5 mg/L
- MIC (Clostridioides difficile [21]): 0.5 mg/L
- MIC (Clostridioides difficile [22]): 0.5 mg/L
- MIC (Clostridioides difficile [23]): 0.25 mg/L
- MIC (Clostridioides difficile [24]): 1 mg/L
- MIC (Clostridioides difficile [25]): 0.5 mg/L
- MIC (Clostridioides difficile [26]): 0.5 mg/L
- MIC (Clostridioides difficile [27]): 0.25 mg/L
- MIC (Clostridioides difficile [28]): 0.5 mg/L
- MIC (Clostridioides difficile [29]): 0.5 mg/L
- MBC (Clostridioides difficile [30]): 2 mg/L
- MBC (Clostridioides difficile [31]): 0.5 mg/L
- MBC (Clostridioides difficile [32]): 0.5 mg/L
- MBC (Clostridioides difficile [33]): 0.5 mg/L
- MBC (Clostridioides difficile [34]): 2 mg/L
- MBC (Clostridioides difficile [35]): 1 mg/L
- MIC (Bacteroides fragilis [36]): 64 mg/L
- MIC (Bacteroides fragilis [37]): 64 mg/L
- MIC (Bacteroides fragilis [38]): > 64 mg/L
- MIC (Bacteroides fragilis [39]): > 64 mg/L
- MIC (Bifidobacterium breve [40]): 1 mg/L
- MIC (Bifidobacterium longum): 0.5 mg/L
- MIC [41]: 1 mg/L
- MIC (Bifidobacterium breve [42]): 1 mg/L
- MIC (Lactobacillus gasseri [43]): 2 mg/L
- MIC (Lactobacillus gasseri [44]): 4 mg/L
- MIC (Lactobacillus crispatus [45]): 1 mg/L
- MIC (Lactobacillus crispatus [46]): 1 mg/L
